The values that follow come from patent publication US11365196B2, “FGFR inhibitor and application thereof” (Betta Pharmaceuticals Co., Ltd., priority 2017, dated 2022).

In one assay the test system is NCI-H1581 cells. Briefly: Cell proliferation assay on NCI-H1581 (Table 7). The format is cell-based, human. The text has this:
(§1) Test method: adding the appropriate volume of whole medium and the cells was suspended.

For a further assay, the system named is SNU-16 cells. Briefly: Cell proliferation assay on SNU-16, CellTiter Glo (Table 8). The format is cell-based, human. Particulars: Homo sapiens, SNU-16, 96 hrs, class symbols, read-out: IC50(nM) value of compounds on SNU-16 cells.
From the text: as §1
A general note: Cellular ATP, detected with luciferase, serves as a proxy for viable cell number.

In another assay the target is FGFR4 (Homo sapiens (Human), UniProt P22455). As to the kind of experiment: Kinase assay Method 1, mobility shift assay. The format is biochemical. Particulars: ATP at Km, numeric values, read-out: IC50(nM) value of compounds FGFR4.
FGFR4, sequence (P22455 22-802): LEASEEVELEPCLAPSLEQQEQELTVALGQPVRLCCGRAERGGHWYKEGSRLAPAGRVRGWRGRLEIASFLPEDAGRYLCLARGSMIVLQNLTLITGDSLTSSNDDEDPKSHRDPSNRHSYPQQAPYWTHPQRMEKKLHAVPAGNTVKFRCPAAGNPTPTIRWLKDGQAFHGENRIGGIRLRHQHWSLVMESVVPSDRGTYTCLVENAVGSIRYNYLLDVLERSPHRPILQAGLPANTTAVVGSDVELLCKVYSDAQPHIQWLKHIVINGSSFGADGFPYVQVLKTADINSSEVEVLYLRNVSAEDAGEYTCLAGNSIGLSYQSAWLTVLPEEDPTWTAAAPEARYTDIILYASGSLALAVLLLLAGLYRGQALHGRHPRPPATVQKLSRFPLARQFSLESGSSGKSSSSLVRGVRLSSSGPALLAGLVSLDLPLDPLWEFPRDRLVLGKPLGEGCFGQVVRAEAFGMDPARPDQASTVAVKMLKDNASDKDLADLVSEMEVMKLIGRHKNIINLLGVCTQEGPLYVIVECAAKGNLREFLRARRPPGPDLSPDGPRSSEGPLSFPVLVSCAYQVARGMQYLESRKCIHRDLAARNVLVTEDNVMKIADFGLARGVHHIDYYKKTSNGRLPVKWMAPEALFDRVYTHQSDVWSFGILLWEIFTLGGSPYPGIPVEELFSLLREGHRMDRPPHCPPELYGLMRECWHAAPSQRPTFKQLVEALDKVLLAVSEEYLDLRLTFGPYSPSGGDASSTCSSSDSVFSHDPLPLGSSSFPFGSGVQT
The target of another assay is FGFR1 (Homo sapiens (Human), UniProt P11362). Briefly: Kinase assay Method 1, mobility shift assay. Particulars: read-out: IC50(nM) value of compounds FGFR1; mobility shift assay, ATP at Km; class symbols.
FGFR1, sequence (P11362 22-822): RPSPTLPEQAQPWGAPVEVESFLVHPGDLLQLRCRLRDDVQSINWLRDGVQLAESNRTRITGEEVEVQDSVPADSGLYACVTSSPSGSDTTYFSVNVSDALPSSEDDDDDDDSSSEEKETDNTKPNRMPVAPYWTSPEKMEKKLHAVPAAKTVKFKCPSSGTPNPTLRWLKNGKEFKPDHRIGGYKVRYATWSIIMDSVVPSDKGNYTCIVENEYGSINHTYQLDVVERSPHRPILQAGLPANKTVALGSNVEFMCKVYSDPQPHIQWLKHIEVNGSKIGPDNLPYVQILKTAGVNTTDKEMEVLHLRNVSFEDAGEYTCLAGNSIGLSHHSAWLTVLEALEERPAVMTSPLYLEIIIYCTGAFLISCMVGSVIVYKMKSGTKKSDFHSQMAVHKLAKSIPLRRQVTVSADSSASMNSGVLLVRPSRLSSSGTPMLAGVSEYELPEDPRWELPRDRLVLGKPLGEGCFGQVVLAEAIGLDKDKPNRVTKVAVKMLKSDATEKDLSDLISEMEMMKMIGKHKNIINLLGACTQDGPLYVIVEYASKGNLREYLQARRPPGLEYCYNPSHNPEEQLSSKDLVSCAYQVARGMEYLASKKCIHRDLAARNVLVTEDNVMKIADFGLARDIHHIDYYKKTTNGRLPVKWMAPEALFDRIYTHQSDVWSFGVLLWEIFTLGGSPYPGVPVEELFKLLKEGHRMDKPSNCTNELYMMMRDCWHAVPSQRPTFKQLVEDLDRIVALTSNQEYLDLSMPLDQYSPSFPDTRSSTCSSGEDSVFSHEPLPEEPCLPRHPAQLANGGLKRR
Where [1] appears, read: Homo sapiens, NCI-H1581, read-out: IC50(nM) value of compounds on NCI-H1581 cells.
The mark [2] stands for this setting: Homo sapiens, NCI-H1581, CellTiter 96 AQueous (144 hrs) or CellTiter Glo (96 hrs), class symbols, read-out: IC50(nM) value of compounds on NCI-H1581 cells.

The structures appear in SMILES notation. Like-named read-outs stand apart in the source and are kept apart here.

Description for FGFR1: Method 1: The inhibitory activity of some compounds of the present disclosure against FGFR1, FGFR2, FGFR3, FGFR4, KDR was tested by mobility shift assay (concentration of ATP is Km value).
Preparing of compounds: dilute test compounds to specific concentration using 100% DMSO

Take `COc1cc(OC)c(Cl)c(-c2cc3cnc(Nc4ccc(N5CCC(N6CCOCC6)CC5)cc4)nc3n3cnnc23)c1` [Compound 29, 6-(2-chloro-3,5-dimethoxyphenyl)-N-(4-(4-morpholinopiperidin-1-yl)phenyl)-[1,2,4]triazolo[4′,3′:1,6]pyrido[2,3-d]pyrimidin-2-amine]: the IC50 (commonly the point on the concentration scale where inhibition reaches its midpoint) was 2 nM in the assay on NCI-H1581 cells (setting [1]) and < 1 nM in the assay on SNU-16 cells.

For the compound `COc1cc(OC)c(Cl)c(-c2cc3cnc(Nc4ccc(N5CCN6CCOC[C@H]6C5)cc4)nc3n3cnnc23)c1` [Compound 43, (R)-6-(2-chloro-3,5-dimethoxyphenyl)-N-(4-(hexahydropyrazino[2,1-c][1,4]oxazin-8(1H)-yl)phenyl)-[1,2,4]triazolo[4′,3′:1,6]pyrido[2,3-d]pyrimidin-2-amine], the figures for the IC50 in the assay on NCI-H1581 cells (setting [1]) and with SNU-16 cells were 1 to 10 nM and < 1 nM, respectively.

On to `COc1cc(OC)c(Cl)c(-c2cc3cnc(Nc4ccc(N5C[C@@H](C)N[C@@H](C)C5)cc4)nc3n3cnnc23)c1` [Compound 50, 6-(2-chloro-3,5-dimethoxyphenyl)-N-(4-((3S,5R)-3,5-dimethylpiperazin-1-yl)phenyl)-[1,2,4]triazolo[4′,3′:1,6]pyrido[2,3-d]pyrimidin-2-amine], for which the half-maximal inhibitory concentration (IC50) at FGFR4 is 35 nM; in the assay with NCI-H1581 cells (setting [1]), 0.2 nM; in the assay with SNU-16 cells, < 1 nM.

With `Cc1nc2cc(Cl)c(-c3cc4cnc(Nc5ccc(N6CCN7CCC[C@@H]7C6)cc5)nc4n4cnnc34)cc2[nH]1` [Compound 84], the figures for the IC50 in the assay with NCI-H1581 cells (setting [2]), in the assay on SNU-16 cells and at FGFR1 were 1 to 10 nM, 1 to 10 nM and < 1 nM, respectively.

As to `CCN1CCC(c2ccc(Nc3ncc4cc(-c5cc(OC)cc(OC)c5Cl)c5nncn5c4n3)cc2)CC1` [Compound 102, 6-(2-chloro-3,5-dimethoxyphenyl)-N-(4-(1-ethylpiperidin-4-yl)phenyl)-[1,2,4]triazolo[4′,3′:1,6]pyrido[2,3-d]pyrimidin-2-amine], the IC50 turned out to be 60 nM at FGFR4 and 0.7 nM with NCI-H1581 cells (setting [1]).

Regarding `COc1cc(OC)c(Cl)c(-c2cc3cnc(Nc4ccc(C5CCNCC5)cc4)nc3n3cnnc23)c1` [Compound 102-2], the half-maximal inhibitory concentration (IC50) at FGFR4 is 26 nM; with NCI-H1581 cells (read-out: IC50(nM) value of compounds on NCI-H1581 cells), 0.9 nM.

Regarding `CCN1CCN(Cc2ccc(Nc3ncc4cc(-c5cc(OC)cc(OC)c5Cl)c5nncn5c4n3)cn2)CC1` [Compound 111, 6-(2-chloro-3,5-dimethoxyphenyl)-N-(6-((4-ethylpiperazin-1-yl)methyl)pyridin-3-yl)-[1,2,4]triazolo[4′,3′:1,6]pyrido[2,3-d]pyrimidin-2-amine], the IC50 on FGFR4 was determined as 288 nM; in the assay on NCI-H1581 cells (setting [1]), 8.2 nM.

With `C=CC(=O)N1CCN(Cc2nc3c(-c4c(Cl)c(OC)cc(OC)c4Cl)cc4cnc(NC)nc4n3n2)CC1` [Compound 123, 1-(4-(2-(4-(2,6-dichloro-3,5-dimethoxyphenyl)-8-(methylamino)-[1,2,4]triazolo[1′,5′:1,6]pyrido[2,3-d]pyrimidin-2-yl)methyl)piperazin-1-yl)prop-2-en-1-one], the values for the 50% inhibitory concentration (IC50) at FGFR4 and in the assay with NCI-H1581 cells (setting [1]) were 730 nM and 5.8 nM, respectively.

Turning to `C=CC(=O)N1CCC2(CC1)CN(CCCc1nc3c(-c4c(Cl)c(OC)cc(OC)c4Cl)cc4cnc(NC)nc4n3n1)C2` [Compound 138, 1-(2-(3-(4-(2,6-dichloro-3,5-dimethoxyphenyl)-8-(methylamino)-[1,2,4]triazolo[1′,5′:1,6]pyrido[2,3-d]pyrimidin-2-yl)propyl)-2,7-diazaspiro[3.5]nonan-7-yl)prop-2-en-1-one], the 50% inhibitory concentration (IC50) in the assay on SNU-16 cells lay within 1 to 10 nM.

In the case of `CNc1ncc2cc(-c3c(Cl)c(OC)cc(OC)c3Cl)c3nc(CCCN4CCN(C(=O)C(C#N)=CC(C)C)CC4)nn3c2n1` [Compound 147, 2-(4-(3-(4-(2,6-dichloro-3,5-dimethoxyphenyl)-8-(methylamino)-[1,2,4]triazolo[1′,5′:1,6]pyrido[2,3-d]pyrimidin-2-yl)propyl)piperazine-1-carbonyl)-4-methylpent-2-enenitrile], the IC50 with NCI-H1581 cells (setting [2]) and with SNU-16 cells was 10 to 100 nM each time.
